Assay results as given in patent publication US10421718B2, “EBNA1 inhibitors and their method of use” (priority 2013, dated 2019).

Biological target: T1, His-EBNA1 (DNA binding domain of EBNA1, amino acids 459-607) (Epstein-Barr virus, UniProt P03211)
T1 construct: made in house; host or cells: E. coli
Experiment: Inhibition of 5′-biotin-oPL4624 binding to His-EBNA1 using Alpha Screen technology
Details: Alpha Screen Activity (IC50, inhibition of 5′-biotin-oPL4624 binding to His-EBNA1), 15 nM His-EBNA1, 0.2 nM bt-oPL4624, 2 hr room temperature
Description: Inhibition of 5′-biotin-oPL4624 binding to His-EBNA1 using Alpha Screen technology: Assays were performed using the DNA binding domain of EBNA1 (amino acids 459-607), which was His-tagged (His-EBNA1) and the self-complementary biotinylated (bt) oligonucleotide with the sequence 5′-bt-[…]-ATGCTACCC-3′ (bt-oPL4624). The protein was expressed in E. coli and purified according to Barwell, et al. (Barwell J A, Bochkarev A, Pfuetzner R A, Tong H, Yang D S, Frappier L, Edwards A M. (1995) Overexpression, purification, and crystallization of the DNA binding and dimerization domains of the Epstein-Barr virus nuclear antigen 1. J Biol Chem. 270: 20556-9.). The bt-oPL4624 oligonucleotide was purchased from Integrated DNA Technologies, Inc (IDT). AlphaScreen donor, acceptor beads and white, opaque 384-well assay plates were purchased from PerkinElmer, Inc.
Assays contained 15 nM His-EBNA1, 0.2 nM bt-oPL4624, 5 μg/mL AlphaScreen streptavidin donor beads and nickel chelate acceptor beads, and a series of concentrations of test compound ranging from 3.2 nM to 100 μM in a total volume of 40 μL assay buffer (25 mM Tris, pH 7.2, 160 mM NaCl, 1 mM MgCl2). His-EBNA1 (30 nM) and bt-oPL4624 (0.4 nM) were preincubated with 10 μg/mL nickel chelate AlphaScreen acceptor bead, or 10 μg/mL streptavidin AlphaScreen donor bead, respectively, for 30 minutes at room temperature in assay buffer. Twenty microliters of His-EBNA1/acceptor bead mix and bt-oPL4624/donor bead mix were transferred to assay plates containing […] of 1:3 serial dilutions of test compounds previously prepared in DMSO at concentrations ranging from 0.32 μM to 10 mM. Nonspecific binding was determined with 5 μg/mL AlphaScreen acceptor bead in the absence of His-EBNA1. After 2 hr incubation at room temperature, the AlphaScreen signal was measured on the Envision plate reader (PerkinElmer, Inc.) at 680 nm excitation and 570 nm emission. Inhibition values at each concentration of test compound were determined by setting 100% equal to raw data values in the absence of EBNA1 and 0% equal to the raw data values in the presence of EBNA1. Nonlinear regression fits of the inhibition values to a one-site dose-response equation were performed using GraphPad Prism.

T1 sequence (P03211 459-607): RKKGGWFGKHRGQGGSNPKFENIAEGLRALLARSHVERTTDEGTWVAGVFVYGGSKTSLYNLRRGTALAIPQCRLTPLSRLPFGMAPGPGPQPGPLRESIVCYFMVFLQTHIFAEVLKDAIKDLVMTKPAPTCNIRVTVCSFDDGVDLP

Compound	IC50
CNS(=O)(=O)c1cccc(C#Cc2cccc(C(=O)O)c2-n2cccc2)c1 [Entry 1, 3-(3-methylsulfamoyl-phenylethynyl)-2-pyrrol-1-yl-benzoic acid]	1000 to 10000 nM
O=C(O)c1cccc(C#Cc2c[nH]c3ccccc23)c1-n1cccc1 [Entry 2, 3-(1H-indol-3-ylethynyl)-2-pyrrol-1-yl-benzoic acid]	< 1000 nM
CS(=O)(=O)Nc1cccc(C#Cc2cccc(C(=O)O)c2-n2cccc2)c1 [Entry 3, 3-[2-(3-methanesulfonamidophenyl)ethynyl]-2-(1H-pyrrol-1-yl)benzoic acid]	< 1000 nM
NS(=O)(=O)c1cccc(C#Cc2cccc(C(=O)O)c2-n2cccc2)c1 [Entry 4, 2-(1H-pyrrol-1-yl)-3-[2-(3-sulfamoylphenyl)ethynyl]benzoic acid]	< 1000 nM
NC(=O)c1cccc(C#Cc2cccc(C(=O)O)c2-n2cccc2)c1 [Entry 5, 3-[2-(3-carbamoylphenyl)ethynyl]-2-(1H-pyrrol-1-yl)benzoic acid]	< 1000 nM
O=C(O)c1cccc(C#Cc2ccc3nccn3c2)c1-n1cccc1 [Entry 6, 3-(2-{imidazo[1,2-a]pyridin-6-yl}ethynyl)-2-(1H-pyrrol-1-yl)benzoic acid]	10000 to 100000 nM
O=C(O)c1cccc(C#Cc2ccnc(O)c2)c1-n1cccc1 [Entry 7, 3-[2-(2-hydroxypyridin-4-yl)ethynyl]-2-(1H-pyrrol-1-yl)benzoic acid]	10000 to 100000 nM
O=C(O)c1cccc(C#Cc2ccc3cn[nH]c3c2)c1-n1cccc1 [Entry 8, 3-[2-(1H-indazol-6-yl)ethynyl]-2-(1H-pyrrol-1-yl)benzoic acid]	1000 to 10000 nM
CC1(C)CN(c2cccc(C#Cc3cccc(C(=O)O)c3-n3cccc3)c2)C1=O [Entry 9, 3-{2-[3-(3,3-dimethyl-2-oxoazetidin-1-yl)phenyl]ethynyl}-2-(1H-pyrrol-1-yl)benzoic acid]	< 1000 nM
CC(C)(CNc1cccc(C#Cc2cccc(C(=O)O)c2-n2cccc2)c1)C(=O)O [Entry 10, 3-(2-{3-[(2-carboxy-2,2-dimethylethyl)amino]phenyl}ethynyl)-2-(1H-pyrrol-1-yl)benzoic acid]	1000 to 10000 nM
O=C(O)c1cccc(C#Cc2cnc3cnccn23)c1-n1cccc1 [Entry 11, 3-(2-{imidazo[1,2-a]pyrazin-3-yl}ethynyl)-2-(1H-pyrrol-1-yl)benzoic acid]	< 1000 nM
O=C(O)c1cccc(C#Cc2cnc3ccccn23)c1-n1cccc1 [Entry 12, 3-(2-{imidazo[1,2-a]pyridin-3-yl}ethynyl)-2-(1H-pyrrol-1-yl)benzoic acid]	< 1000 nM
O=C(O)c1cccc(C#Cc2cccc3nccn23)c1-n1cccc1 [Entry 13, 3-(2-{imidazo[1,2-a]pyridin-5-yl}ethynyl)-2-(1H-pyrrol-1-yl)benzoic acid]	10000 to 100000 nM
O=C(O)c1cccc(C#Cc2cnc3[nH]ccc3c2)c1-n1cccc1 [Entry 14, 2-(1H-pyrrol-1-yl)-3-(2-{1H-pyrrolo[2,3-b]pyridin-5-yl}ethynyl)benzoic acid]	1000 to 10000 nM
Cn1ccc2c(C#Cc3cccc(C(=O)O)c3-n3cccc3)cccc21 [Entry 15, 3-[2-(1-methyl-1H-indol-4-yl)ethynyl]-2-(1H-pyrrol-1-yl)benzoic acid]	< 1000 nM
Cn1ccc2cc(C#Cc3cccc(C(=O)O)c3-n3cccc3)ccc21 [Entry 16, 3-[2-(1-methyl-1H-indol-5-yl)ethynyl]-2-(1H-pyrrol-1-yl)benzoic acid]	< 1000 nM
O=C(O)c1cccc(C#Cc2ccc3ccsc3c2)c1-n1cccc1 [Entry 17, 3-[2-(1-benzothiophen-6-yl)ethynyl]-2-(1H-pyrrol-1-yl)benzoic acid]	1000 to 10000 nM
O=C(O)c1cccc(C#Cc2cccc3cc[nH]c23)c1-n1cccc1 [Entry 18, 3-[2-(1H-indol-7-yl)ethynyl]-2-(1H-pyrrol-1-yl)benzoic acid]	< 1000 nM
O=C(O)c1cccc(C#Cc2ccccc2CO)c1-n1cccc1 [Entry 19, 3-{2-[2-(hydroxymethyl)phenyl]ethynyl}-2-(1H-pyrrol-1-yl)benzoic acid]	< 1000 nM
O=C(O)c1cccc(C#Cc2ccc(CO)cc2)c1-n1cccc1 [Entry 20, 3-{2-[4-(hydroxymethyl)phenyl]ethynyl}-2-(1H-pyrrol-1-yl)benzoic acid]	< 1000 nM

Compound	IC50
Cc1ccc(C#Cc2cccc(C(=O)O)c2-n2c(C)ccc2C)cc1 [Entry 21, 2-(2,5-dimethyl-1H-pyrrol-1-yl)-3-[2-(4-methylphenyl)ethynyl]benzoic acid]	< 1000 nM
Cc1ccc(C)n1-c1c(C#Cc2cccc(O)c2)cccc1C(=O)O [Entry 22, 2-(2,5-dimethyl-1H-pyrrol-1-yl)-3-[2-(3-hydroxyphenyl)ethynyl]benzoic acid]	< 1000 nM
O=C(O)c1cccc(C#Cc2ccc3c(c2)NCC3)c1-n1cccc1 [Entry 23, 3-[2-(2,3-dihydro-1H-indol-6-yl)ethynyl]-2-(1H-pyrrol-1-yl)benzoic acid]	< 1000 nM
Cn1cc(C#Cc2cccc(C(=O)O)c2-n2cccc2)cn1 [Entry 24, 3-[2-(1-methyl-1H-pyrazol-4-yl)ethynyl]-2-(1H-pyrrol-1-yl)benzoic acid]	1000 to 10000 nM
Cc1nc(C#Cc2cccc(C(=O)O)c2-n2cccc2)cn1C [Entry 25, 3-[2-(1,2-dimethyl-1H-imidazol-4-yl)ethynyl]-2-(1H-pyrrol-1-yl)benzoic acid]	10000 to 100000 nM
Cn1cncc1C#Cc1cccc(C(=O)O)c1-n1cccc1 [Entry 26, 3-[2-(1-methyl-1H-imidazol-5-yl)ethynyl]-2-(1H-pyrrol-1-yl)benzoic acid]	10000 to 100000 nM
Cn1ccnc1C#Cc1cccc(C(=O)O)c1-n1cccc1 [Entry 27, 3-[2-(1-methyl-1H-imidazol-2-yl)ethynyl]-2-(1H-pyrrol-1-yl)benzoic acid]	10000 to 100000 nM
O=C(O)c1cccc(C#Cc2cncs2)c1-n1cccc1 [Entry 28, 2-(1H-pyrrol-1-yl)-3-[2-(1,3-thiazol-5-yl)ethynyl]benzoic acid]	10000 to 100000 nM
O=C(O)c1cccc(C#Cc2cscn2)c1-n1cccc1 [Entry 29, 2-(1H-pyrrol-1-yl)-3-[2-(1,3-thiazol-4-yl)ethynyl]benzoic acid]	< 1000 nM
O=C(O)c1cccc(C#Cc2ccc3cc[nH]c3n2)c1-n1cccc1 [Entry 30, 2-(1H-pyrrol-1-yl)-3-(2-{1H-pyrrolo[2,3-b]pyridin-6-yl}ethynyl)benzoic acid]	1000 to 10000 nM
CC(C)(O)c1cccc(C#Cc2cccc(C(=O)O)c2-n2cccc2)c1 [Entry 31, 3-{2-[3-(2-hydroxypropan-2-yl)phenyl]ethynyl}-2-(1H-pyrrol-1-yl)benzoic acid]	1000 to 10000 nM
CC(C)C(O)C#Cc1cccc(C(=O)O)c1-n1cccc1 (stereo not shown) [Entry 32, 3-(3-hydroxy-4-methylpent-1-yn-1-yl)-2-(1H-pyrrol-1-yl)benzoic acid]	1000 to 10000 nM
O=C(O)c1cccc(C#CC(O)c2ccccc2)c1-n1cccc1 (stereo not shown) [Entry 33, 3-(3-hydroxy-3-phenylprop-1-yn-1-yl)-2-(1H-pyrrol-1-yl)benzoic acid]	< 1000 nM
O=C(O)c1cccc(C#Cc2c[nH]c3ncccc23)c1-n1cccc1 [Entry 34, 2-(1H-pyrrol-1-yl)-3-(2-{1H-pyrrolo[2,3-b]pyridin-3-yl}ethynyl)benzoic acid]	< 1000 nM
O=C(O)c1cccc(C#Cc2cccc3[nH]ccc23)c1-n1cccc1 [Entry 35, 3-[2-(1H-indol-4-yl)ethynyl]-2-(1H-pyrrol-1-yl)benzoic acid]	< 1000 nM
O=C(O)c1cccc(C#Cc2ccn3ncnc3c2)c1-n1cccc1 [Entry 36, 2-(1H-pyrrol-1-yl)-3-(2-{[1,2,4]triazolo[1,5-a]pyridin-7-yl}ethynyl)benzoic acid]	< 1000 nM
CN(C)S(=O)(=O)c1cccc(C#Cc2cccc(C(=O)O)c2-n2cccc2)c1 [Entry 37, 3-{2-[3-(dimethylsulfamoyl)phenyl]ethynyl}-2-(1H-pyrrol-1-yl)benzoic acid]	< 1000 nM
O=C(O)c1cccc(C#Cc2cc(O)cc(F)c2)c1-n1cccc1 [Entry 38, 3-[2-(3-fluoro-5-hydroxyphenyl)ethynyl]-2-(1H-pyrrol-1-yl)benzoic acid]	< 1000 nM
O=C(O)c1cccc(C#Cc2cccc(CO)c2)c1-n1cccc1 [Entry 39, 3-{2-[3-(hydroxymethyl)phenyl]ethynyl}-2-(1H-pyrrol-1-yl)benzoic acid]	< 1000 nM
O=C(O)c1cccc(C#Cc2cncc(O)c2)c1-n1cccc1 [Entry 40, 3-[2-(5-hydroxypyridin-3-yl)ethynyl]-2-(1H-pyrrol-1-yl)benzoic acid]	10000 to 100000 nM
